Measurements: patent US8822468B2 (Novartis AG, priority 2008, dated 2014)

Molecular target: T1, cMET receptor tyrosine kinase (GST-cMET (969-1390)) (Homo sapiens, UniProt P08581)
T1 construct: made in house
Assay: EPK cMET profiling assay (LanthaScreen TR-FRET antibody based kinase phosphorylation assay)
Format: biochemical
Settings: purified recombinant GST-cMET (969-1390), 2 μM ATP, 50 nM Fluorescein-PolyEAY, 60 minutes at room temperature; read-out: c-Met IC50
How it was run: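 Compounds tested at eight final concentrations from 10 down to 0.003 µM against affinity-purified GST-cMET (969-1390, 0.3 nM) with 2 µM ATP and 50 nM fluorescein-PolyEAY in Tris buffer with MgCl2 and MnCl2, 1 h at room temperature. After EDTA stop, phosphoproduct detected by LanthaScreen TR-FRET with Tb-PY20 antibody, end-point measurement.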

T1 sequence (P08581 969-1390): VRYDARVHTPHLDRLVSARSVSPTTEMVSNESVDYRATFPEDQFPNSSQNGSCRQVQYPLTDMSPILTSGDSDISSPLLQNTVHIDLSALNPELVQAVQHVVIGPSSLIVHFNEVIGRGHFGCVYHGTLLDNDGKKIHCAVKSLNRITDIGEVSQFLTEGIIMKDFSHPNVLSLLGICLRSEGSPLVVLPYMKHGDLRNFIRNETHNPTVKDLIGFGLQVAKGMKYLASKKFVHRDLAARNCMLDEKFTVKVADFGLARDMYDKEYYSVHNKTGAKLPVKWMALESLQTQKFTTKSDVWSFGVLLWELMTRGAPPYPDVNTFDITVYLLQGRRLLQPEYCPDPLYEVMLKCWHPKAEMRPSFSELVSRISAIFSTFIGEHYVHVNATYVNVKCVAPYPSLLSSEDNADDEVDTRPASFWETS

SMILES	IC50 [µM]
Cn1cc(-c2ccc3ncc(Cc4cn5ccnc5cc4F)n3n2)cn1 [Example 205, 3-(7-Fluoro-imidazo[1,2-a]pyridin-6-ylmethyl)-6-(1-methyl-1H-pyrazol-4-yl)-imidazo[1,2-b]pyridazine]	0.047
N#Cc1ccc2ncc(Cc3ccc4ncccc4c3)n2n1 [Example 208, 3-Quinolin-6-ylmethyl-imidazo[1,2-b]pyridazine-6-carbonitrile]	0.052
OCCn1cc(-c2ccc3ncc(Cc4ccc5ncccc5c4)n3n2)cn1 [Example 210, 2-[4-(3-Quinolin-6-ylmethyl-imidazo[1,2-b]pyridazin-6-yl)-pyrazol-1-yl]-ethanol]	0.052
CCn1cc(-c2ccc3ncc(Cc4ccc5ncccc5c4)n3n2)cn1 [Example 211, 6-[6-(1-Ethyl-1H-pyrazol-4-yl)-imidazo[1,2-b]pyridazin-3-ylmethyl]-quinoline]	0.086
c1cnc2ccc(Cc3cnc4ccc(-c5cn[nH]c5)nn34)cc2c1 [Example 212, 6-[6-(1H-Pyrazol-4-yl)-imidazo[1,2-b]pyridazin-3-ylmethyl]-quinoline]	0.054
OCCn1cc(-c2ccc3ncc(Cc4ccc5nccn5c4)n3n2)cn1 [Example 215, 2-[4-(3-Imidazo[1,2-a]pyridin-6-ylmethyl-imidazo[1,2-b]pyridazin-6-yl)-pyrazol-1-yl]-ethanol]	0.13
Cn1cnc2ccc(Cc3cnc4ccc(-c5cnn(CCO)c5)nn34)cc21 [Example 217, 2-{4-[3-(3-Methyl-3H-benzoimidazol-5-ylmethyl)-imidazo[1,2-b]pyridazin-6-yl]-pyrazol-1-yl}-ethanol]	0.084
OCCn1cc(-c2ccc3ncc(Cc4ccc(O)cc4F)n3n2)cn1 [Example 219, 3-Fluoro-4-{6-[1-(2-hydroxy-ethyl)-1H-pyrazol-4-yl]-imidazo[1,2-b]pyridazin-3-ylmethyl}-phenol]	0.12
OCCn1cc(-c2ccc3ncc(Cc4ccc(O)cc4)n3n2)cn1 [Example 220, 4-{6-[1-(2-Hydroxy-ethyl)-1H-pyrazol-4-yl]-imidazo[1,2-b]pyridazin-3-ylmethyl}-phenol]	0.33
CC(c1ccc2ncccc2c1Cl)c1cnc2ccc(-c3cnn(C4CCN(C)CC4)c3)nn12 (centres unmarked) [Example 224, 5-Chloro-6-(1-{6-[1-(1-methyl-piperidin-4-yl)-1H-pyrazol-4-yl]-imidazo[1,2-b]pyridazin-3-yl}-ethyl)-quinoline]	0.028
OCCn1cc(-c2ccc3ncc(Cc4ccc5ncccc5c4Cl)n3n2)cn1 [Example 226, 2-{4-[3-(5-Chloro-quinolin-6-ylmethyl)-imidazo[1,2-b]pyridazin-6-yl]-pyrazol-1-yl}-ethanol]	0.025
Clc1c(Cc2cnc3ccc(-c4cnn(C5CCNCC5)c4)nn23)ccc2ncccc12 [Example 227, 5-Chloro-6-[6-(1-piperidin-4-yl-1H-pyrazol-4-yl)-imidazo[1,2-b]pyridazin-3-ylmethyl]-quinoline]	0.078
CN1CCC(n2cc(-c3ccc4ncc(Cc5ccc6ncccc6c5Cl)n4n3)cn2)CC1 [Example 228, 5-Chloro-6-{6-[1-(1-methyl-piperidin-4-yl)-1H-pyrazol-4-yl]-imidazo[1,2-b]pyridazin-3-ylmethyl}-quinoline]	0.099
CC(=O)N1CCC(n2cc(-c3ccc4ncc(Cc5cc6cccnc6cc5F)n4n3)cn2)CC1 [Example 230, 1-(4-{4-[3-(7-Fluoro-quinolin-6-ylmethyl)-imidazo[1,2-b]pyridazin-6-yl]-pyrazol-1-yl}-piperidin-1-yl)-ethanone]	0.027
Fc1cc2ncccc2cc1Cc1cnc2ccc(-c3cnn(CCN4CCCC4)c3)nn12 [Example 231, 7-Fluoro-6-{6-[1-(2-pyrrolidin-1-yl-ethyl)-1H-pyrazol-4-yl]-imidazo[1,2-b]pyridazin-3-ylmethyl}-quinoline]	0.026
Fc1cc2ncccc2cc1Cc1cnc2ccc(-c3cnn(CCN4CCOCC4)c3)nn12 [Example 232, 7-Fluoro-6-{6-[1-(2-morpholin-4-yl-ethyl)-1H-pyrazol-4-yl]-imidazo[1,2-b]pyridazin-3-ylmethyl}-quinoline]	0.066
COCCOCCn1cc(-c2ccc3ncc(Cc4cc5cccnc5cc4F)n3n2)cn1 [Example 233, 7-Fluoro-6-(6-{1-[2-(2-methoxy-ethoxy)-ethyl]-1H-pyrazol-4-yl}-imidazo[1,2-b]pyridazin-3-ylmethyl)-quinoline]	0.12
COCCn1cc(-c2ccc3ncc(Cc4cc5cccnc5cc4F)n3n2)cn1 [Example 234, 7-Fluoro-6-{6-[1-(2-methoxy-ethyl)-1H-pyrazol-4-yl]-imidazo[1,2-b]pyridazin-3-ylmethyl}-quinoline]	0.11
c1cnc2ccc(Cc3cnc4ccc(-c5cnn(CCN6CCC6)c5)nn34)cc2c1 [Example 235, 6-{6-[1-(2-Azetidin-1-yl-ethyl)-1H-pyrazol-4-yl]-imidazo[1,2-b]pyridazin-3-ylmethyl}-quinoline]	0.22

SMILES	IC50 [µM]
c1cnc2ccc(Cc3cnc4ccc(-c5cnn(CCN6CCCC6)c5)nn34)cc2c1 [Example 236, 6-{6-[1-(2-Pyrrolidin-1-yl-ethyl)-1H-pyrazol-4-yl]-imidazo[1,2-b]pyridazin-3-ylmethyl}-quinoline]	0.37
CNCCn1cc(-c2ccc3ncc(Cc4ccc5ncccc5c4)n3n2)cn1 [Example 237, Methyl-{2-[4-(3-quinolin-6-ylmethyl-imidazo[1,2-b]pyridazin-6-yl)-pyrazol-1-yl]-ethyl}-amine]	0.17
CN1CCC(n2cc(-c3ccc4ncc(Cc5ccc6ncccc6c5)n4n3)cn2)CC1 [Example 238, 6-{6-[1-(1-Methyl-piperidin-4-yl)-1H-pyrazol-4-yl]-imidazo[1,2-b]pyridazin-3-ylmethyl}-quinoline]	0.23
C[C@@H](c1ccc2ncccc2c1)c1cnc2ccc(-c3cnn(C4CCN(C)CC4)c3)nn12 [Example 239, 6-((S)-1-{6-[1-(1-Methyl-piperidin-4-yl)-1H-pyrazol-4-yl]-imidazo[1,2-b]pyridazin-3-yl}-ethyl)quinoline]	0.031
C[C@@H](c1ccc2ncccc2c1)c1cnc2ccc(-c3cn[nH]c3)nn12 [Example 240, 6-{(S)-1-[6-(1H-Pyrazol-4-yl)-imidazo[1,2-b]pyridazin-3-yl]-ethyl}-quinoline]	0.0084
Cn1cc(-c2ccc3ncc(Cc4cc5cccnc5cc4Cl)n3n2)cn1 [Example 241, 7-Chloro-6-[6-(1-methyl-1H-pyrazol-4-yl)-imidazo[1,2-b]pyridazin-3-ylmethyl]-quinoline]	0.0375
CCn1cc(-c2ccc3ncc(Cc4cc5cccnc5cc4Cl)n3n2)cn1 [Example 242, 7-Chloro-6-[6-(1-ethyl-1H-pyrazol-4-yl)-imidazo[1,2-b]pyridazin-3-ylmethyl]-quinoline]	0.086
OCCn1cc(-c2ccc3ncc(Cc4cc5cccnc5cc4Cl)n3n2)cn1 [Example 243, 2-{4-[3-(7-Chloro-quinolin-6-ylmethyl)-imidazo[1,2-b]pyridazin-6-yl]-pyrazol-1-yl}-ethanol]	0.037
CC(C)(C)OC(=O)N1CCC(n2cc(-c3ccc4ncc(Cc5c(F)cc6ncccc6c5F)n4n3)cn2)CC1 [Example 244, 4-{4-[3-(5,7-Difluoro-quinolin-6-ylmethyl)-imidazo[1,2-b]pyridazin-6-yl]-pyrazol-1-yl}-piperidine-1-carboxylic acid tert-butyl ester]	0.087
Fc1cc2ncccc2c(F)c1Cc1cnc2ccc(-c3cnn(C4CCNCC4)c3)nn12 [Example 245, 5,7-Difluoro-6-[6-(1-piperidin-4-yl-1H-pyrazol-4-yl)-imidazo[1,2-b]pyridazin-3-ylmethyl]-quinoline]	0.044
CN1CCC(n2cc(-c3ccc4ncc(Cc5c(F)cc6ncccc6c5F)n4n3)cn2)CC1 [Example 246, 5,7-Difluoro-6-{6-[1-(1-methyl-piperidin-4-yl)-1H-pyrazol-4-yl]-imidazo[1,2-b]pyridazin-3-ylmethyl}-quinoline]	< 0.003
CCn1cc(-c2ccc3ncc(Cc4cc5cccnc5cc4F)n3n2)cn1 [Example 250, 6-[6-(1-Ethyl-1H-pyrazol-4-yl)-imidazo[1,2-b]pyridazin-3-ylmethyl]-7-fluoro-quinoline]	0.015
Fc1cc2ncccc2cc1Cc1cnc2ccc(-c3cn[nH]c3)nn12 [Example 251, 7-Fluoro-6-[6-(1H-pyrazol-4-yl)-imidazo[1,2-b]pyridazin-3-ylmethyl]-quinoline]	0.021
OCCn1cc(-c2ccc3ncc(Cc4cc5cccnc5cc4F)n3n2)cn1 [Example 254, 2-{4-[3-(7-Fluoro-quinolin-6-ylmethyl)-imidazo[1,2-b]pyridazin-6-yl]-pyrazol-1-yl}-ethanol]	0.033
C[C@@H](c1cc2cccnc2cc1F)c1cnc2ccc(-c3cnn(CCO)c3)nn12 [Example 257]	< 0.003
O[C@H]1CCN(c2ccc3ncc(Cc4cc5cccnc5cc4F)n3n2)C1 [Example 261, (S)-1-[3-(7-Fluoro-quinolin-6-ylmethyl)-imidazo[1,2-b]pyridazin-6-yl]-pyrrolidin-3-ol]	0.12
O[C@@H]1CCN(c2ccc3ncc(Cc4cc5cccnc5cc4F)n3n2)C1 [Example 262, (R)-1-[3-(7-Fluoro-quinolin-6-ylmethyl)-imidazo[1,2-b]pyridazin-6-yl]-pyrrolidin-3-ol]	0.042
Fc1cc2ncccc2c(F)c1Cc1cnc2ccc(-c3cn[nH]c3)nn12 [Example 263, 5,7-Difluoro-6-[6-(1H-pyrazol-4-yl)-imidazo[1,2-b]pyridazin-3-ylmethyl]-quinoline]	0.01
C[C@@H](c1ccc2ncccc2c1)c1cnc2ccc(Cl)nn12 [Example 273, 6-[(S)-1-(6-Chloro-imidazo[1,2-b]pyridazin-3-yl)-ethyl]-quinoline]	0.021
